This is an account of results in paper PMC12668304, “A Triple Threat Against Ovarian Cancer: Os(II)‐Pt(IV)‐Ceritinib Conjugates for Photodynamic Therapy, Chemotherapy, and Immunogenic Cell Death Induction” (Angewandte Chemie (International Ed. in English), 2025).

This experiment deals with MCA205 cells co-incubated with RAW 264.7 macrophages. Put plainly: Phagocytosis of treated cancer cells by macrophages (flow cytometry, confocal microscopy). To be noted: IC50,48 h concentration, 3 h co-incubation. Type of experiment: cell-based, mouse. How it is done: All compounds were incubated for 4 h with the cells, which were either irradiated at 740 nm (1 h) or kept in the dark. 16 h post‐treatment, cancer cells were stained with CellMask Green, while RAW 264.7 macrophages were stained with CellMask DeepRed. Co‐culture was performed at a 1 : 2 (macrophage : tumour cells) ratio for 3 h. Thereafter, the phagocytosis was evaluated by flow cytometry and confocal microscopy.
To quantify this phagocytic response, a flow cytometry assay was performed, see Figure 12. MCA205 cells were incubated with Os‐Pt‐Cer for 4 h, after which half of the samples were either kept in the dark (−L) or irradiated (+L) for 1 h (740 nm). After an additional 16 h, the cells were co‐incubated with RAW 264.7 macrophages for 3 h. […] Flow cytometry analysis was used to quantify phagocytosis, identifying double‐positive (green–red) events as phagocytic macrophages. […]
analyzed using an ATP assay kit according to the manufacturer’s instructions. Luminescence was measured on a SPARK multimode reader (Tecan). […]
MCA205 and A2780 cells were seeded on µ-slide 8 well (Ibidi) (100 µl/well) and left for 24 h to attach to the bottom at a density of 2 x 10^4 cells/well and incubated overnight. […] 30 minutes before starting confocal fluorescence microscopy analysis, Hoechst was added at a final concentration of 1 µg/mL. […] Images were analysed with LAS X Film FCS software. […]

Consider `O=C1[O][Pt]2([NH][C@@H]3CCCC[C@H]3[NH]2)[O]C1=O` [Oxaliplatin], for which the “phagocytosis, double‐positive (green–red) events (upper right quadrant)” value (light condition not given) is given as 6.0%.
Turning to `C=Cc1c(C)c2cc3nc(c(CC(=O)O)c4[nH]c(cc5nc(cc1[nH]2)C(C)=C5CC)c(C)c4C(=O)O)[C@@H](CCC(=O)O)[C@@H]3C` [Ce6, Chlorin e6], the “phagocytosis, double‐positive (green–red) events (upper right quadrant)” value (+L (740 nm, 1 h)) was 7.4%.
